Experimental data taken from patent publication US6673938B1, “Substituted pyridine herbicides” (Syngenta Participations AG, priority 1998, dated 2004).

Key:
[1] = tested on: Monocotyledonous and dicotyledonous test plants; test: Herbicidal action before emergence of the plants (pre-emergence action); type: in vivo; conditions: 2000 g/ha, evaluated after 3 weeks, nine-step scale
Outline: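 Sprayed onto soil immediately after sowing as WP suspension or EC emulsion at 2 kg or 250 g a.i./ha (500 l water/ha). Greenhouse growth for 3 weeks, then scored on a nine-step scale (1 = complete damage, 9 = no effect).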

[2] = tested on: Monocotyledonous and dicotyledonous test plants; test: Post-emergence herbicidal action; type: in vivo; conditions: 2000 g/ha, sprayed in 4- to 6-leaf stage, evaluated after approximately 18 days, nine-step scale
Outline: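 Greenhouse plants sprayed at the 4- to 6-leaf stage with test substance as wettable-powder suspension or emulsion-concentrate emulsion, 2 kg or 250 g a.i./ha in 500 l water/ha. Scored after about 18 days on a nine-step scale (1=complete damage, 9=no effect).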

| Structure (SMILES) | pre-emergence action, Cyperus [1] | pre-emergence action, Ipomoea [1] | pre-emergence action, Setaria [1] | pre-emergence action, Sinapis [1] | pre-emergence action, Solanum [1] | pre-emergence action, Stellaria [1] | Post-emergence action, Ipomoea [2] | Post-emergence action, Lolium [2] | Post-emergence action, Setaria [2] | Post-emergence action, Sinapis [2] | Post-emergence action, Solanum [2] | Post-emergence action, Stellaria [2] |
| --- | --- | --- | --- | --- | --- | --- | --- | --- | --- | --- | --- | --- |
| Cc1nc(C(F)(F)F)ccc1C(=O)C1=C(O)C(C)CC2(CCC2)C1=O (stereo not drawn) [Compound A2-C152] | 1 | 1 | 2 | 2 | 1 | 2 | 2 | 2 | 3 | 1 | 2 | 2 |
| Cc1nc(C(F)(F)C(F)(F)F)ccc1C(=O)C1=C(O)CCCC1=O [Compound A34-B1] | 1 | 2 | 2 | 2 | 2 | 3 | 1 | 2 | 2 | 1 | 1 | 2 |
| Cc1nc(C(F)(F)F)ccc1C(=O)C1=C(O)C(C)(C)CC2(CCC2)C1=O [Compound A2-C147] | 2 | 4 | 2 | 2 | 2 | 2 | 1 | 2 | 2 | 1 | 2 | 2 |
| Cc1nc(C(F)(F)F)ccc1C(=O)C1=C(O)C(C)(C)OC(C)(C)C1=O [Compound A2-B618] | 1 | 1 | 1 | 2 | 1 | 1 | 2 | 2 | 2 | 1 | 2 | 2 |
| COC1CC(C)C(=O)C(C(=O)c2ccc(C(F)(F)F)nc2C)=C1O (stereo not drawn) [Compound A2-B1070, 3-Hydroxy-4-methoxy-6-methyl-2-(2-methyl-6-trifluoromethyl-pyridine-3-carbonyl)cyclohex-2-enone] | 2 | 3 | 3 | 2 | 2 | 2 | 2 | 4 | 2 | 2 | 2 | 2 |
| CCN(CC)CC.COCc1nc(C(F)(F)F)ccc1C(=O)C1=C(O)CC(C)CC1=O (stereo not drawn) [Compound A8-B1101] | 2 | 4 | 2 | 2 | 1 | 1 | 2 | 3 | 2 | 1 | 2 | 2 |
| Cc1nc(C(F)(F)C(F)(F)C(F)(F)F)ccc1C(=O)C1=C(O)C(C)(C)CCC1=O [Compound A64-B24] | 4 | 4 | 2 | 2 | 1 | 2 | 2 | 2 | 4 | 1 | 2 | 2 |
| Cc1nc(C(F)(F)F)ccc1C(=O)C1=C(O)C(C)(S(C)(=O)=O)CCC1=O (stereo not drawn) [Compound A2-B31] | 2 | 3 | 4 | 2 | 1 | 2 | 2 | 2 | 2 | 1 | 2 | 2 |
| C#CCC1CC(C)(C)C(=O)C(C(=O)c2ccc(C(F)(F)F)nc2C)=C1O (stereo not drawn) [Compound A2-B1082] | 2 | 2 | 2 | 2 | 1 | 2 | 1 | 2 | 2 | 1 | 1 | 2 |
| COCc1nc(C(F)(F)F)ccc1C(=O)C1=C(O)CC(C(F)(F)F)CC1=O (stereo not drawn) [Compound A8-B1064] | 2 | 4 | 3 | 2 | 1 | 3 | 2 | 4 | 2 | 1 | 1 | 2 |
| COC1CCC(=O)C(C(=O)c2ccc(C(F)(F)F)nc2C)=C1O (stereo not drawn) [Compound A2-B1068] | 2 | 2 | 2 | 2 | 1 | 2 | 1 | 2 | 4 | 1 | 1 | 2 |
